Assay results published in PubChem BioAssay AID2305 (GlaxoSmithKline (GSK), 2010).

System: P. falciparum 3D7 growth, pLDH absorbance
Experiment: blood-stage malaria parasite growth potency – strain 3D7, dose response (AID 2305)

Compound: CS(=O)(=O)Nc1ccc2[nH]cc(C3C[C@H]4CC[C@@H](C3)N4CC3CCC(NC(=O)/C=C/c4ccc(Cl)c(Cl)c4)CC3)c2c1 (some centres not stated)
- IC50: 870 nM

Compound: Cc1cc(NC(=O)Nc2ccc(I)c(OCCN(C)C)c2)ccc1Br
- IC50: 620 nM

Compound: COc1cc2nc(N3CCC(C(N)=O)CC3)nc(NCc3ccccc3)c2cc1OC
- IC50: 890 nM

Compound: CC(C)c1sc(N2CCN(C)CC2)nc1C(=O)NCCc1ccc(Cl)c(Cl)c1
- IC50: 1050 nM

Compound: CN1CCN(c2ccnc3ccc(NC(=O)Cc4ccc5ccccc5c4)cc23)CC1
- IC50: 760 nM

Compound: O=C(Nc1ccnc2ccccc12)NC1CCN(CCc2ccccc2)CC1
- IC50: 360 nM

Compound: Cn1c(N)c(C(=O)CSc2ncc(-c3ccc(F)cc3)n2Cc2ccccc2)c(=O)n(C)c1=O
- IC50: 570 nM

Compound: CN1CCN(CCCN(Cc2ccc(-c3cccc(CNCc4ccc5c(c4)OCO5)c3)cc2)C(=O)CCC2CCCC2)CC1
- IC50: 1010 nM

Compound: CN1CCN(c2ccnc3ccc(NC(=O)Nc4ccc5c(c4)CCCC5=O)cc23)CC1
- IC50: 130 nM

Compound: CCC(C)(C)c1ccc(S(=O)(=O)Nc2ccc(Cl)c(OCCN3CCCCC3)c2)cc1
- IC50: 1110 nM

Compound: CC(=O)N1N=C(c2ccc(Cl)cc2)Sc2c1nc(C1CCCCC1)n2C(C)=O
- IC50: 250 nM

Compound: COc1cc2nc(N3CCC(CNC(=O)c4ccc(-c5cccc(C#N)c5)cc4)CC3)nc(N)c2cc1OC
- IC50: 140 nM

Compound: Cn1nc(-c2ccc(NC(=O)Nc3cc(C(F)(F)F)ccc3F)cc2)c2cnc(NCCCCN3CCCC3)nc21
- IC50: 530 nM

Compound: N#Cc1cc([N+](=O)[O-])ccc1-n1nc(-c2cccc(Cl)c2)n(Cc2ccco2)c1=S
- IC50: 200 nM

Compound: O=C(Nc1cccc(-c2ccc(-c3nc4ccc(F)cc4[nH]3)cc2)c1)c1ccoc1
- IC50: 960 nM

Compound: Cc1nc(C)c(-c2ccc(Oc3ccc(OC(F)(F)F)cc3)cc2)c(OC(=O)c2ccc(CN(C)C)cc2)c1Cl
- IC50: 140 nM

Compound: CCC[C@@H]([C@@H](CC1CCCCC1)C(=O)N[C@H](C(=O)Nc1nccs1)C(C)(C)SCCNC(=O)OCC)N(O)C=O
- IC50: 80 nM

Compound: O=S(=O)(NCCN1CCCC1)c1cccc(-c2ccc(CNCc3ccsc3)cc2)c1
- IC50: 800 nM

Compound: O=C(Nc1ccncc1)c1cc(C(=O)Nc2ccncc2)cc([N+](=O)[O-])c1
- IC50: 610 nM

Compound: Cc1cc(NC(=O)Nc2cccc(Cl)c2Cl)c2ccccc2n1
- IC50: 740 nM

Compound: CCCc1cc(NCC)nc(Nc2ccc(C)cc2)n1
- IC50: 890 nM

Compound: O=C(Nc1cn(-c2ccc(OCc3cccc(F)c3)c(Cl)c2)c2ncncc12)c1ccncc1
- IC50: 170 nM

Compound: O=C(CN1CCN(C(=O)c2ccco2)CC1)Nc1ccccc1Br
- IC50: 560 nM

Compound: Cc1ccc(Nc2nccc(NCC(O)c3cccc(C)c3)n2)cc1 (configuration not stated)
- IC50: 1020 nM

Compound: Oc1ccc2[nH]c(-c3cccc(F)c3)nc2c1CN1CCC(O)(c2ccccc2)CC1
- IC50: 990 nM

Compound: CN(C)Cc1ccc2nc(-c3cccc(Cc4cc(Cl)ccc4OCc4ccc(Cl)cc4F)n3)[nH]c2c1
- IC50: 1130 nM

Compound: CC(C)C(C(=O)Nc1ccc(S(=O)(=O)N(C)C)cc1)c1ccc(Cl)cc1 (configuration not stated)
- IC50: 940 nM

Compound: O=C(N[C@@H](CC1CCCCC1)C(=O)NC1CCCc2ccccc21)c1ccc(O)c(-c2ccc(Cl)c(Cl)c2)c1 (some centres not stated)
- IC50: 200 nM

Compound: CCCCCC(=O)N1CCOC(CCN2CCC(c3ccccc3)CC2)(c2ccc(Cl)c(Cl)c2)C1 (configuration not stated)
- IC50: 1120 nM

Compound: O=C(Nc1cccc(N2CCC(NCc3cccnc3)CC2)c1)c1cccc(C(F)(F)F)c1
- IC50: 970 nM

Compound: COc1ccc(NC(=O)/C=C/c2ccccc2Cl)cc1OCCN1CCC(NCc2cccnc2)CC1
- IC50: 760 nM

Compound: CC(C)NCc1cccc(-c2cccc(NC(=O)c3cccc(Cl)c3)c2)c1
- IC50: 590 nM

Compound: CCn1cc2c3c(cc(C(=O)N[C@@H](Cc4ccccc4)[C@H](O)CNCc4cccc(OC)c4)cc31)N(C)S(=O)(=O)CC2
- IC50: 670 nM

Compound: CCN=C1NC2=C(CC(C(C)(C)C)CC2)C2(CCC(C(C)(C)C)CC2)S1 (configuration not stated)
- IC50: 830 nM

Compound: CCc1cc(NC(=O)Nc2ccnc3ccccc23)ccc1OC
- IC50: 140 nM

Compound: Cc1cnc2ccc(NS(=O)(=O)c3ccc4c(Cl)cccc4c3)cc2c1N1CCNCC1
- IC50: 750 nM

Compound: Cc1cc2nc(-c3ccc(C(=O)NCCCc4ccccc4)cc3)[nH]c2cc1C
- IC50: 1180 nM

Compound: CN(C)CCCOc1ccc(CN2CCC(c3c[nH]c4ccc(NCC5CCCCC5)cc34)CC2)cc1
- IC50: 680 nM

Compound: CNC(=O)c1ccccc1Nc1cc(Nc2cc(OC)ccn2)ncc1Cl
- IC50: 930 nM

Compound: O=C1SC(=Cc2ccc(O)c(O)c2)C(=O)N1c1ccccc1
- IC50: 1200 nM

Compound: C=CCc1cc(C2CCN(CCCCNC(=O)c3ccc(-c4ccc(C#N)cc4)cc3)CC2)c(OCC(N)=O)c2c1CCCC2
- IC50: 800 nM

Compound: Cc1noc(C)c1-c1cccc(CNCc2ccc(-c3cccc(-c4nc5c(C)cccc5[nH]4)c3)cc2)c1
- IC50: 220 nM

Compound: Fc1ccc2nc(-c3ccc(-c4ccc(CNCCN5CCNCC5)cc4)s3)[nH]c2c1
- IC50: 780 nM

Compound: O=C(Nc1ccc(OC2CCN(Cc3ccsc3)CC2)c(Cl)c1)c1ccc(F)cc1
- IC50: 650 nM

Compound: Cc1cc(C)cc(NC(=S)NCCCCN2CCN(c3cccc(Cl)c3)CC2)c1
- IC50: 1350 nM

Compound: O=C(Cn1c2ccccc2c(=O)c2ccc(Cl)cc21)Nc1ccc(C(F)(F)F)cc1
- IC50: 530 nM

Compound: CN(C)c1cccc2c1nc(-c1ccc3c(c1)CCO3)n2CCNCc1ccccc1
- IC50: 730 nM

Compound: CCCCCCn1c(Sc2ccc(C#N)c([N+](=O)[O-])c2)nnc1-c1ccc(OC)cc1
- IC50: 850 nM

Compound: COc1ccc(CNCc2cccc(-c3ccc(-c4nc5c(C)cccc5[nH]4)s3)c2)cc1
- IC50: 260 nM

Compound: O=C(Nc1cccnc1)c1ccc(-c2cc3ccncc3cc2OC2CCNCC2)s1
- IC50: 880 nM

Compound: O=c1c2ccccc2nc(C=Cc2ccc([N+](=O)[O-])cc2)n1-c1ccccn1
- IC50: 380 nM

Compound: COc1cc(Cc2cnc(N)nc2N)cc(OCCn2ccccc2=O)c1OC
- IC50: 770 nM

Compound: CC(C)c1ccc(OCC(O)CN(C)C(C)C(O)c2ccccc2)c(Br)c1 (configuration not stated)
- IC50: 810 nM

Compound: COC(=O)c1ccc(CC(C)NCC(O)c2cccc(C(F)(F)F)c2)cc1F (configuration not stated)
- IC50: 1060 nM

Compound: CC(C)(C)CC(=O)Nc1ccc(Nc2cc(-c3ccncc3)cc3ncc(C(N)=O)cc23)cc1
- IC50: 700 nM

Compound: CC[C@H]1CN2CC[C@@H]1C[C@H]2[C@H](O)c1cc(N2CCC(N3CCCCC3)CC2)nc2ccc(OC)cc12
- IC50: 270 nM

Compound: Cc1cccc2[nH]c(-c3cccc(-c4ccc(NC(=O)N[C@@H]5C[C@H]5c5ccccc5)cc4)c3)nc12
- IC50: 720 nM

Compound: Cc1cc(N2CCCC2)nc(Nc2ccc(NC(=O)c3ccc(Br)o3)cc2)n1
- IC50: 620 nM

Compound: O=C(/C=C/c1ccc(Cl)c(Cl)c1)N1CCC(CN2CCC(c3c[nH]c4ccc(NS(=O)(=O)c5cccs5)cc34)CC2)CC1
- IC50: 220 nM

Compound: CN(C)CCOc1ccc(N2CCN(CCCCNC(=O)c3ccc(/C=C/c4cc(Cl)cc(Cl)c4)cc3)CC2)cc1
- IC50: 1000 nM

Compound: CN(C(=O)c1snnc1-c1ccccc1)C1CCN(CCCCCNC(=O)/C=C/c2ccc(Cl)c(Cl)c2)CC1
- IC50: 190 nM

Compound: CCOc1ccc(NC(=O)c2cccc(CN3CCCN(Cc4cccc(O)c4)CC3)c2)cc1
- IC50: 1080 nM

Compound: Cn1cccc1C(=O)C(=O)Nc1cccc(-c2ccc(-c3nc4ccc(C(F)(F)F)cc4[nH]3)cc2)c1
- IC50: 790 nM

Compound: CS(=O)(=O)CCNCc1ccc(-c2ccc3c(Nc4ccc(Oc5ccccn5)cc4)ccnc3c2)o1
- IC50: 710 nM

Compound: O=[N+]([O-])c1ccc2c(-c3ccccc3)c(-c3ccccc3)n(O)c2c1
- IC50: 990 nM

Compound: CN(C)c1ccc(CN2CCCC(CNC(=O)c3ccc(-c4cccc(C(F)(F)F)c4)s3)C2)cc1 (configuration not stated)
- IC50: 1200 nM

Compound: Fc1ccc2nc(-c3ccc(-c4cccc(CN5CCCCC5)c4)cc3)[nH]c2c1
- IC50: 270 nM

Compound: CCOc1ccc2nc(NC(=O)c3csnn3)sc2c1
- IC50: 480 nM

Compound: Cc1ccccc1N1CCN(c2ccc(C(=O)Nc3ccccc3)cn2)CC1
- IC50: 590 nM

Compound: CN1CCCC1CCCOC(=O)c1ccc(N)cc1 (configuration not stated)
- IC50: 920 nM

Compound: CCN1CCN(c2cc(C)c3cc(NC(=O)c4cc(OC)cc(OC)c4)ccc3n2)CC1
- IC50: 160 nM

Compound: N=C(N)c1ccc(Nc2nccc(Nc3nc(-c4ccccc4)cs3)n2)cc1
- IC50: 750 nM

Compound: Nc1ccc2[nH]cc(C3CCN(CCC4CCN(C(=O)/C=C/c5ccc(Cl)c(Cl)c5)CC4)CC3)c2n1
- IC50: 740 nM

Compound: COc1ccc2nccc([C@@H](O)CN3CCC(NC(=O)c4nc(Cl)c(Cl)c(N)c4Cl)CC3)c2c1
- IC50: 1300 nM

Compound: COc1ccc2nc(C)cc(NN=Cc3cccc(Cl)c3)c2c1
- IC50: 630 nM

Compound: CN(C)CCOc1cc(NC(=O)Nc2ccc3c(c2)CCCC3=O)ccc1I
- IC50: 940 nM

Compound: CCCCCCNC(=O)C1Cc2c([nH]c3ccc(C)cc23)C2(CCN(Cc3ccccc3)CC2)N1 (configuration not stated)
- IC50: 980 nM

Compound: COc1ccc(-c2cccc(NC(=O)c3ccc(Cl)cc3)c2)cc1CN1CCNCC1
- IC50: 840 nM

Compound: CC[C@H]1CN2CC[C@@H]1C[C@H]2[C@H](O)c1cc(-c2c(C)noc2C)nc2ccc(OC)cc12
- IC50: 30 nM

Compound: OCCN1CCN(Cc2ccc(-c3cccc(-c4nc5ccc(C(F)(F)F)cc5[nH]4)c3)cc2)CC1
- IC50: 640 nM

Compound: O=S(=O)(NCCN1CCCC1)c1ccc(-c2cccc(CNC3Cc4ccccc4C3)c2)s1
- IC50: 750 nM

Compound: COc1ccc(Cc2c(N)nc3nc(N)nc(N)c3c2C)cc1
- IC50: 190 nM

Compound: O=C(/C=C/c1ccc(Cl)c(Cl)c1)NCCCCCN1CCC(NC(=O)Nc2cccc(Cl)c2)CC1
- IC50: 750 nM

Compound: COCCSc1nc2scc(C)c2c(=O)n1Cc1cccc(OC)c1
- IC50: 910 nM

Compound: CCOCc1cnc(C)nc1CNC(=O)c1c(C)[nH]c2ccc(C)cc12
- IC50: 1010 nM

Compound: O=c1cc(-c2ccc3ccccc3c2)[nH]c2ccccc12
- IC50: 1160 nM

Compound: Cc1ccc(S(=O)(=O)N2CCCN(C(=O)c3cc(-c4ccccc4)n[nH]3)CC2)cc1
- IC50: 80 nM

Compound: CN1CCCN(Cc2cccc(-c3ccc(NC(=O)c4cccc(Cl)c4)cc3)c2)CC1
- IC50: 930 nM

Compound: COc1ccc(CCNCC(O)c2cccc(Br)c2)c(Cl)c1OC (configuration not stated)
- IC50: 1040 nM

Compound: COc1ccc(CNC2CCN(c3ccc(NC(=O)c4cccc(Cl)c4)cc3)CC2)cc1OC
- IC50: 1020 nM

Compound: CN(C)CCOC(=O)C1(O)CCC2CC1C2(C)C (configuration not stated)
- IC50: 980 nM

Compound: O=C(Nc1ccc(-c2cccc(-c3nc4ccc(F)cc4[nH]3)c2)cc1)Nc1ccc(F)c(F)c1F
- IC50: 740 nM

Compound: Cc1cc(CN2CC[C@H](NC(=O)c3ccc(Cl)c(Cl)c3)C2)ccc1OCCN1CCCC1
- IC50: 1160 nM

Compound: O=C(NCCCCN1CC=C(c2ccc3c(c2OCC2CC2)CCCC3)CC1)c1ccc(-c2ccc(C(F)(F)F)cc2)cc1
- IC50: 540 nM

Compound: N#Cc1ccc(-c2ccc(C(=O)NCCCCN3CCC(c4cc(Br)c5c(c4OCC(N)=O)CCCC5)CC3)cc2)cc1
- IC50: 800 nM

Compound: CCOc1c(OC)ccc2c1CCN(CCN1CCC(CNC(=O)c3ccc(-c4ccc(C(F)(F)F)cc4)cc3)CC1)C2
- IC50: 850 nM

Compound: CN1CCN(CCNc2c3ccccc3nc3c2ccc2ccccc23)CC1
- IC50: 610 nM
